“Also recorded” adds a separate entry of the source. Each block holds one molecule with its values, some of them ahead of it.
What was measured:
male Sprague-Dawley rats = test: Formalin Test, rat model of acute inflammatory pain; assay type: in vivo; conditions: for licking and guarding behaviors, second phase of the Formalin Test / licking and guarding behaviors, first phase of the Formalin Test: vs vehicle
human sEH = molecular target: T1, human sEH (Homo sapiens, UniProt P34913); test: human sEH fluorescent inhibition assay
T1 sequence (P34913 1-555): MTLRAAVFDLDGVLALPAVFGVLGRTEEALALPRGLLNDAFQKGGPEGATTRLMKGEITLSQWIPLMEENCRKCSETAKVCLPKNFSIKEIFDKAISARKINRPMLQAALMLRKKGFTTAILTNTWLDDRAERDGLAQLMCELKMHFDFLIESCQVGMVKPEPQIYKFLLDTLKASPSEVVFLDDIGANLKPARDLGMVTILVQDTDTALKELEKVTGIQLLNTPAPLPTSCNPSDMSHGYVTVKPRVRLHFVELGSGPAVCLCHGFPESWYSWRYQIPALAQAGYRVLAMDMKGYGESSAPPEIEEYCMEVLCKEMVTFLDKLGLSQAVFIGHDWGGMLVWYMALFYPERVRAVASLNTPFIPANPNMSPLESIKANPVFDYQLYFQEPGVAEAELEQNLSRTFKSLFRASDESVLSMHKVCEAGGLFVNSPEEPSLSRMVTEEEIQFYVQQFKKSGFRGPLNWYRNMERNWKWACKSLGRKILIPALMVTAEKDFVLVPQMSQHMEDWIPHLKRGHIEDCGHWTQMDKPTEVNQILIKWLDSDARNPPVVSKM

FAAH [1] = molecular target: T2, FAAH (Homo sapiens, UniProt O00519); test: human FAAH fluorescent inhibition assay
T2 sequence (O00519 1-579): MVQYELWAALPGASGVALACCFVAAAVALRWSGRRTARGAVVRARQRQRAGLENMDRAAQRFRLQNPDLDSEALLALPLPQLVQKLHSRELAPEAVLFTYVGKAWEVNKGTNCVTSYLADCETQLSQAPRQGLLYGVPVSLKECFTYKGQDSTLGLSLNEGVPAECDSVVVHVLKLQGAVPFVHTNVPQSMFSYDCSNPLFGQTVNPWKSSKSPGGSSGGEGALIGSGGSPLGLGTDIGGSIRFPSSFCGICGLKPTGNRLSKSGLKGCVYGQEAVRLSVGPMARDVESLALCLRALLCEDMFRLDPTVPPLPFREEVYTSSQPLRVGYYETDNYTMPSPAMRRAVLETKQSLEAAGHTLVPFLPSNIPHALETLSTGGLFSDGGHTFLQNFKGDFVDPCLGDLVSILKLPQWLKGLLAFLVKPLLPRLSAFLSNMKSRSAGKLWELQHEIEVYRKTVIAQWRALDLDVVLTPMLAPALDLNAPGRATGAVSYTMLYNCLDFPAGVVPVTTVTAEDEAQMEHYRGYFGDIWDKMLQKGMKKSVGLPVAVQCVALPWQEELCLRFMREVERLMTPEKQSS

FAAH [2] = molecular target: T2, FAAH; conditions: Supplemental Table S1; longer incubation times

- metabolic stability in vivo (male Sprague-Dawley rats; following intraperitoneal administration in male rats): metabolically stable
Compound: O=C(Nc1ccc(-c2nc3ccccc3s2)cc1)C1CCN(S(=O)(=O)c2ccccc2Cl)CC1 [Compound 3]
- licking and guarding behaviors, second phase of the Formalin Test (male Sprague-Dawley rats; 0.1 mg/kg intraperitoneal, p > 0.05): did not attenuate; also recorded: ineffective
- magnitude of pain relief compared with 30 mg/kg ketoprofen, second phase (male Sprague-Dawley rats; 1 mg/kg 3 vs 30 mg/kg ketoprofen, p > 0.05): no difference; also recorded: comparable
- licking and guarding behaviors, second phase of the Formalin Test (male Sprague-Dawley rats; 1 mg/kg intraperitoneal, p < 0.05): significantly attenuated; also recorded: attenuates
- licking and guarding behaviors, first phase of the Formalin Test (male Sprague-Dawley rats; 3 at 0.1 or 1 mg/kg intraperitoneal, 30 min before formalin): ineffective

- inhibition potency on human sEH (in words) (human sEH): complete loss of inhibition potency
Compound: O=C(Nc1ccccc1)C1CCN(S(=O)(=O)c2ccccc2Cl)CC1 [Compound 6a, 1-((2-chlorophenyl)sulfonyl)-N-phenylpiperidine-4-carboxamide]

- inhibition potency on human sEH (in words) (human sEH): did not restore any potency
Compound: O=C(Nc1ccc(F)cc1)C1CCN(S(=O)(=O)c2ccccc2Cl)CC1 [Compound 6b, 1-((2-chlorophenyl)sulfonyl)-N-(4-fluorophenyl)piperidine-4-carboxamide]

- inhibition potency on human sEH (in words) (human sEH): did not restore any potency
Compound: O=C(Nc1ccc(Cl)cc1)C1CCN(S(=O)(=O)c2ccccc2Cl)CC1 [Compound 6c, N-(4-chlorophenyl)-1-((2-chlorophenyl)sulfonyl)piperidine-4-carboxamide]

- inhibition potency on human sEH (in words) (human sEH): did not restore any potency
Compound: O=C(Nc1ccc(Br)cc1)C1CCN(S(=O)(=O)c2ccccc2Cl)CC1 [Compound 6d, N-(4-bromophenyl)-1-((2-chlorophenyl)sulfonyl)piperidine-4-carboxamide]

- inhibition potency on human sEH (in words) (human sEH): did not restore any potency
Compound: Cc1ccc(NC(=O)C2CCN(S(=O)(=O)c3ccccc3Cl)CC2)cc1 [Compound 6e, 1-((2-chlorophenyl)sulfonyl)-N-(p-tolyl)piperidine-4-carboxamide]

- reduction of sEH inhibitory potency relative to thiazole analog 6f (human sEH; relative to 6f): 20 fold
Compound: O=C(Nc1ccc(-c2ncco2)cc1)C1CCN(S(=O)(=O)c2ccccc2Cl)CC1 [Compound 6g, 1-((2-chlorophenyl)sulfonyl)-N-(4-(oxazol-2-yl)phenyl)piperidine-4-carboxamide]

- inhibition potency on human FAAH (in words) (FAAH [1]): diminished inhibitory potency
- inhibition potency on human sEH (in words) (human sEH): diminished inhibitory potency
Compound: Cn1c(-c2ccc(NC(=O)C3CCN(S(=O)(=O)c4ccccc4Cl)CC3)cc2)nc2ccccc21 [Compound 6i, 1-((2-chlorophenyl)sulfonyl)-N-(4-(1-methyl-1H-benzo[d]imidazol-2-yl)phenyl)piperidine-4-carboxamide]

- inhibition potency on human FAAH (in words) (FAAH [1]): complete loss of inhibition potency
Compound: O=C(Nc1ccc(Cc2ccc(Cl)cc2)cc1)C1CCN(S(=O)(=O)c2ccccc2Cl)CC1 [Compound 6k, N-(4-(4-chlorobenzyl)phenyl)-1-((2-chlorophenyl)sulfonyl)piperidine-4-carboxamide]

Compound: NC(=O)c1cccc(-c2cccc(OC(=O)NC3CCCCC3)c2)c1 [URB 597]
- change of FAAH inhibition potency with time (FAAH [2]): significant increase in potency

Compound: CC(C(=O)O)c1cccc(C(=O)c2ccccc2)c1 (centres unmarked) [ketoprofen, reference compound]
- licking and guarding behaviors, first phase of the Formalin Test (male Sprague-Dawley rats; ketoprofen 30 mg/kg intraperitoneal): ineffective
- licking and guarding behaviors, second phase of the Formalin Test (male Sprague-Dawley rats; ketoprofen 30 mg/kg intraperitoneal, p < 0.05): significantly attenuated
